Source: patent US11946041B2, “Modification of polypeptides” (BicycleRD Limited, priority 2017, dated 2024)
pKi: −log10 of the molar value.

Molecular target: T1, EphA3 (Homo sapiens, UniProt P29320)
T1 construct: So far all selections have been performed with soluble EphA3 ecto domain
T1 sequence (P29320 21-541 limits assumed): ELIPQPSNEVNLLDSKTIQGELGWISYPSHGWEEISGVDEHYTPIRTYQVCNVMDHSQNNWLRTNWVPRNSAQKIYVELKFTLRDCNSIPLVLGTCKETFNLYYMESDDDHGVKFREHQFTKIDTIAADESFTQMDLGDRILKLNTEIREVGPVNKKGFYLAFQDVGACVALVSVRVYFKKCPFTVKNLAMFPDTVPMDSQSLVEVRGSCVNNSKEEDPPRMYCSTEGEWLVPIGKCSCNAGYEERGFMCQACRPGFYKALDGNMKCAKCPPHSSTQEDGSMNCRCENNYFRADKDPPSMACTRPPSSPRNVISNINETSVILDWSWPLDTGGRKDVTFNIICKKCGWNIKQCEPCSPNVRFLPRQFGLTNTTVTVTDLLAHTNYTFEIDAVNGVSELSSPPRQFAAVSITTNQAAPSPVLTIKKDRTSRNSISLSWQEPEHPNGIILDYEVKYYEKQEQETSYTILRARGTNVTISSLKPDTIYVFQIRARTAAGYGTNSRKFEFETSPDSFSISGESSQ
Assay: EphA3 FP competition assay with 67-10-05 as labelled tracer
Format: binding
Conditions: tracer 67-10-05

Row | pKi | Ki (nM) | Sequence
1 | 8.27 | – | CIPDPYQCVILRQPC [67-10-05-N005, EphA3 peptide ligand, 6X6 loops, from soluble selection; used as labelled tracer]
2 | – | No binding | CRASAGQCNPDPKLC [67-24-00-N001, EphA3 peptide from cell-based screening, 6X6 loops]
